{
  "source": "patent US20260265233A1",
  "about": "“BENZOTHIOPHENE DERIVATIVES AS RXFP1 AGONISTS” (BRISTOL-MYERS SQUIBB COMPANY, priority 2021, published 2026)",
  "biological_target": "T1, human RXFP1 (Homo sapiens, UniProt Q9HBX9)",
  "T1 construct": "expressed in transfected cells",
  "T1 sequence (Q9HBX9 1-757)": "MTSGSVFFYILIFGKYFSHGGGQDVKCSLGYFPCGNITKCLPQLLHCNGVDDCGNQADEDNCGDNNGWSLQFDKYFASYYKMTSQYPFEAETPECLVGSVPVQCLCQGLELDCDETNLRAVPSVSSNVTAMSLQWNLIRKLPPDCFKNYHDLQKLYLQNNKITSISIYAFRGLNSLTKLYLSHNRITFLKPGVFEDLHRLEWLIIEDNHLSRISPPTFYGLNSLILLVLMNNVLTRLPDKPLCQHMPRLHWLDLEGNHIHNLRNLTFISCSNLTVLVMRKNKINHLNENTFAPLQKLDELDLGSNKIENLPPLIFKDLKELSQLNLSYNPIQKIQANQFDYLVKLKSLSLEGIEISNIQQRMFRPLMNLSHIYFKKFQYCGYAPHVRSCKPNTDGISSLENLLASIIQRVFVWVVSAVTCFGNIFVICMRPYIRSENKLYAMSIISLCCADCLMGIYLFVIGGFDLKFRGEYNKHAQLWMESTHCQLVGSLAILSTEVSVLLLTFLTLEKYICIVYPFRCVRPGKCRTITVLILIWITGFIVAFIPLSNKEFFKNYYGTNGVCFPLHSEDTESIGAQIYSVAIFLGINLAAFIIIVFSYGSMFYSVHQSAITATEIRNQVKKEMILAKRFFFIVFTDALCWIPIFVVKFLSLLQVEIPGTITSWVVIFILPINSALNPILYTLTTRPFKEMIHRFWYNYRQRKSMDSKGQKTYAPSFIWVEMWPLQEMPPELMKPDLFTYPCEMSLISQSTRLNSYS",
  "experiment": "hRXFP1 HEK293 cAMP assay (HTRF)",
  "format": "cell-based",
  "settings": "HEK293 cells stably expressing human RXFP1; 30 min at rt; intracellular cAMP by HTRF",
  "protocol": "RXFP1 Cyclic Adenosine Monophosphate (cAMP) Assays. Human embryonic kidney cells 293 (HEK293) cells and HEK293 cells stably expressing human RXFP1, were cultured in MEM medium supplemented with 10% qualified FBS, and 300 μg/ml hygromycin (Life Technologies). Cells were dissociated and suspended in assay buffer. The assay buffer was HBSS buffer (with calcium and magnesium) containing 20 mM HEPES, 0.05% BSA, and 0.5 mM IBMX. Cells (3000 cells per well, except 1500 cell per well for HEK293 cells stably expressing human RXFP1) were added to 384-well Proxiplates (Perkin-Elmer). Cells were immediately treated with test compounds in DMSO (2% final) at final concentrations in the range of 0.010 nM to 50 μM. Cells were incubated for 30 min at rt. The level of intracellular cAMP was determined using the HTRF HiRange cAMP assay reagent kit (Cisbio) according to manufacturer's instructions. Solutions of cryptate conjugated anti-cAMP and d2 fluorophore-labelled cAMP were made in a supplied lysis buffer separately. Upon completion of the reaction, the cells were lysed with equal volume of the d2-cAMP solution and anti-cAMP solution. After a 1 h rt incubation, time-resolved fluorescence intensity was measured using the Envision (Perkin-Elmer) at 400 nm excitation and dual emission at 590 nm and 665 nm. A calibration curve was constructed with an external cAMP standard at concentrations ranging from 2.7 μM to 0.1 pM by plotting the fluorescent intensity ratio from 665 nm emission to the intensity from the 590 nm emission against cAMP concentrations. The potency and activity of a compound to […] cAMP production was then determined by fitting to a 4-parametric logistic equation from a plot of cAMP level versus compound concentrations.\nThe examples disclosed below were tested in the human RXFP1 (hRXFP1) HEK293 cAMP assay described above and found to have agonist activity.",
  "data": [
    {"molecule": "2-(3′-((2-((4-fluoro-3-(trifluoromethyl) phenyl) carbamoyl)-6-(trifluoromethyl) benzo[b]thiophen-3-yl) carbamoyl)-4′-methoxy-[1, 1′-biphenyl]-3-yl)-2-(tetrahydro-2H-pyran-4-carboxamido) acetic acid [Example 26]", "values": [
      {"measurement": "EC50", "result": 153, "unit": "nM"}
    ]},
    {"molecule": "COc1ccc(N2CCCC(C(=O)O)C2)cc1C(=O)Nc1c(C(=O)Nc2ccc(F)c(C(F)(F)F)c2)sc2cc(C(F)(F)F)ccc12", "note": "(single isomer, unassigned) [Example 4, 1-(3-((2-((4-fluoro-3-(trifluoromethyl)phenyl)carbamoyl)-6-(trifluoromethyl)benzo[b]thiophen-3-yl)carbamoyl)-4-methoxyphenyl) piperidine-3-carboxylic acid]", "values": [
      {"measurement": "EC50", "result": 375, "unit": "nM"}
    ]},
    {"molecule": "COc1ccc(N2CCCC(C(=O)O)C2)cc1C(=O)Nc1c(C(=O)Nc2ccc(F)c(C(F)(F)F)c2)sc2cc(C(F)(F)F)ccc12", "note": "(single isomer, unassigned) [Example 5, 1-(3-((2-((4-fluoro-3-(trifluoromethyl)phenyl)carbamoyl)-6-(trifluoromethyl)benzo[b]thiophen-3-yl)carbamoyl)-4-methoxyphenyl) piperidine-3-carboxylic acid]", "values": [
      {"measurement": "EC50", "result": 150, "unit": "nM"}
    ]},
    {"molecule": "COc1ccc(N2CCCC(C(=O)NS(C)(=O)=O)C2)cc1C(=O)Nc1c(C(=O)Nc2ccc(F)c(C(F)(F)F)c2)sc2cc(C(F)(F)F)ccc12", "note": "(single isomer, unassigned) [Example 6, 1-(3-((2-((4-fluoro-3-(trifluoromethyl)phenyl)carbamoyl)-6-(trifluoromethyl)benzo[b]thiophen-3-yl)carbamoyl)-4-methoxyphenyl)-N-(methylsulfonyl) piperidine-3-carboxamide]", "values": [
      {"measurement": "EC50", "result": 349, "unit": "nM"}
    ]},
    {"molecule": "COc1ccc(N2CCCC(C(=O)NCC(C)(C)O)C2)cc1C(=O)Nc1c(C(=O)Nc2ccc(F)c(C(F)(F)F)c2)sc2cc(C(F)(F)F)ccc12", "note": "(single isomer, unassigned) [Example 7, 1-(3-((2-((4-fluoro-3-(trifluoromethyl)phenyl)carbamoyl)-6-(trifluoromethyl)benzo[b]thiophen-3-yl)carbamoyl)-4-methoxyphenyl)-N-(2-hydroxy-2-methylpropyl) piperidine-3-carboxamide]", "values": [
      {"measurement": "EC50", "result": 661, "unit": "nM"}
    ]},
    {"molecule": "COc1ccc(N2CCCC(C(=O)NCC(C)(C)O)C2)cc1C(=O)Nc1c(C(=O)Nc2ccc(F)c(C(F)(F)F)c2)sc2cc(C(F)(F)F)ccc12", "note": "(single isomer, unassigned) [Example 8, 1-(3-((2-((4-fluoro-3-(trifluoromethyl)phenyl)carbamoyl)-6-(trifluoromethyl)benzo[b]thiophen-3-yl)carbamoyl)-4-methoxyphenyl)-N-(2-hydroxy-2-methylpropyl) piperidine-3-carboxamide]", "values": [
      {"measurement": "EC50", "result": 2020, "unit": "nM"}
    ]},
    {"molecule": "COc1ccc(N2CCC(NCCO)C2)cc1C(=O)Nc1c(C(=O)Nc2ccc(F)c(C(F)(F)F)c2)sc2cc(C(F)(F)F)ccc12", "note": "(single isomer, unassigned) [Example 9, N-(4-fluoro-3-(trifluoromethyl)phenyl)-3-(5-(3-((2-hydroxyethyl)amino)pyrrolidin-1-yl)-2-methoxybenzamido)-6-(trifluoromethyl) benzo[b]thiophene-2-carboxamide]", "values": [
      {"measurement": "EC50", "result": 2380, "unit": "nM"}
    ]},
    {"molecule": "COc1ccc(-c2cc(C(NC(=O)C3CCOCC3)C(F)(F)F)ccc2F)cc1C(=O)Nc1c(C(=O)Nc2ccc(F)c(C(F)(F)F)c2)sc2cc(C(F)(F)F)ccc12", "note": "(single isomer, unassigned) [Example 20, N-(2,2,2-trifluoro-1-(6-fluoro-3′-((2-((4-fluoro-3-(trifluoromethyl)phenyl)carbamoyl)-6-(trifluoromethyl)benzo[b]thiophen-3-yl)carbamoyl)-4′-methoxy-[1,1′-biphenyl]-3-yl)ethyl)tetrahydro-2H-pyran-4-carboxamide]", "values": [
      {"measurement": "EC50", "result": 954, "unit": "nM"}
    ]},
    {"molecule": "COc1ccc(-c2cc(C(NC(=O)C3CCOCC3)C(F)(F)F)ccc2F)cc1C(=O)Nc1c(C(=O)Nc2ccc(F)c(C(F)(F)F)c2)sc2cc(C(F)(F)F)ccc12", "note": "(single isomer, unassigned) [Example 21, N-(2,2,2-trifluoro-1-(6-fluoro-3′-((2-((4-fluoro-3-(trifluoromethyl)phenyl)carbamoyl)-6-(trifluoromethyl)benzo[b]thiophen-3-yl)carbamoyl)-4′-methoxy-[1,1′-biphenyl]-3-yl)ethyl)tetrahydro-2H-pyran-4-carboxamide]", "values": [
      {"measurement": "EC50", "result": 363, "unit": "nM"}
    ]},
    {"molecule": "COc1ccc(-c2cnc(C3(O)CCS(=O)(=O)C3)nc2)cc1C(=O)Nc1c(C(=O)Nc2ccc(F)c(C(F)(F)F)c2)sc2cc(C(F)(F)F)ccc12", "note": "(single isomer, unassigned) [Example 23, N-(4-fluoro-3-(trifluoromethyl)phenyl)-3-(5-(2-(3-hydroxy-1,1-dioxidotetrahydrothiophen-3-yl)pyrimidin-5-yl)-2-methoxybenzamido)-6-(trifluoromethyl)benzo[b]thiophene-2-carboxamide]", "values": [
      {"measurement": "EC50", "result": 3100, "unit": "nM"}
    ]},
    {"molecule": "COc1ccc(-c2cnc(C3(O)CCS(=O)(=O)C3)nc2)cc1C(=O)Nc1c(C(=O)Nc2ccc(F)c(C(F)(F)F)c2)sc2cc(C(F)(F)F)ccc12", "note": "(single isomer, unassigned) [Example 24, N-(4-fluoro-3-(trifluoromethyl)phenyl)-3-(5-(2-(3-hydroxy-1,1-dioxidotetrahydrothiophen-3-yl)pyrimidin-5-yl)-2-methoxybenzamido)-6-(trifluoromethyl)benzo[b]thiophene-2-carboxamide]", "values": [
      {"measurement": "EC50", "result": 3360, "unit": "nM"}
    ]},
    {"molecule": "COc1ccc(-c2cccc(C(NC(=O)C3CCOCC3)C(=O)O)c2)cc1C(=O)Nc1c(C(=O)Nc2ccc(F)c(C(F)(F)F)c2)sc2cc(C(F)(F)F)ccc12", "note": "(single isomer, unassigned) [Example 25, 2-(3′-((2-((4-fluoro-3-(trifluoromethyl)phenyl)carbamoyl)-6-(trifluoromethyl)benzo[b]thiophen-3-yl)carbamoyl)-4′-methoxy-[1, 1′-biphenyl]-3-yl)-2-(tetrahydro-2H-pyran-4-carboxamido) acetic acid]", "values": [
      {"measurement": "EC50", "result": 3.8, "unit": "nM"}
    ]},
    {"molecule": "COc1ccc(C2CCCC(O)C2)cc1C(=O)Nc1c(C(=O)Nc2ccc(F)c(C(F)(F)F)c2)sc2cc(C(F)(F)F)ccc12", "note": "(single isomer, unassigned) [Example 32, N-(4-fluoro-3-(trifluoromethyl)phenyl)-3-(5-(3-hydroxycyclohexyl)-2-methoxybenzamido)-6-(trifluoromethyl)benzo[b]thiophene-2-carboxamide]", "values": [
      {"measurement": "EC50", "result": 718, "unit": "nM"}
    ]},
    {"molecule": "COc1ccc(C2CCCC(O)C2)cc1C(=O)Nc1c(C(=O)Nc2ccc(F)c(C(F)(F)F)c2)sc2cc(C(F)(F)F)ccc12", "note": "(single isomer, unassigned) [Example 33, N-(4-fluoro-3-(trifluoromethyl)phenyl)-3-(5-(3-hydroxycyclohexyl)-2-methoxybenzamido)-6-(trifluoromethyl)benzo[b]thiophene-2-carboxamide]", "values": [
      {"measurement": "EC50", "result": 216, "unit": "nM"}
    ]},
    {"molecule": "COc1ccc(C2CCCC(C)(O)C2)cc1C(=O)Nc1c(C(=O)Nc2ccc(F)c(C(F)(F)F)c2)sc2cc(C(F)(F)F)ccc12", "note": "(single isomer, unassigned) [Example 34, N-(4-fluoro-3-(trifluoromethyl)phenyl)-3-(5-(3-hydroxy-3-methylcyclohexyl)-2-methoxybenzamido)-6-(trifluoromethyl)benzo[b]thiophene-2-carboxamide]", "values": [
      {"measurement": "EC50", "result": 850, "unit": "nM"}
    ]},
    {"molecule": "COc1ccc(C2CCCC(C)(O)C2)cc1C(=O)Nc1c(C(=O)Nc2ccc(F)c(C(F)(F)F)c2)sc2cc(C(F)(F)F)ccc12", "note": "(single isomer, unassigned) [Example 35, N-(4-fluoro-3-(trifluoromethyl)phenyl)-3-(5-(3-hydroxy-3-methylcyclohexyl)-2-methoxybenzamido)-6-(trifluoromethyl)benzo[b]thiophene-2-carboxamide]", "values": [
      {"measurement": "EC50", "result": 794, "unit": "nM"}
    ]}
  ]
}
